# Source: patent US20230031406A1, “COMPOUNDS AND COMPOSITIONS FOR TREATING CONDITIONS ASSOCIATED WITH NLRP ACTIVITY” (Novartis AG, priority 2018, published 2023)
# Read-outs that look alike come from different tables or passages of the source.
# System: PMA-differentiated THP-1 cells
# Assay: IL-1β production in PMA-differentiated THP-1 cells stimulated with gramicidin (hTHP-1 assay containing 2% fetal bovine serum; Procedures 1 and 2)
# Type: cell-based, human
# Details: 2% fetal bovine serum
# Protocol: The following protocol is suitable for testing the activity of the compounds disclosed herein. Procedure 1: IL-1β Production in PMA-Differentiated THP-1 Cells Stimulated with Gramicidin.
# THP-1 cells were purchased from the American Type Culture Collection and sub-cultured according to instructions from the supplier. Cells were cultured in complete RPMI 1640 (containing 10% heat inactivated FBS, penicillin (100 units/ml) and streptomycin (100 μg/ml)), and maintained in log phase prior to experimental setup. Prior to the experiment, compounds were dissolved in dimethyl sulfoxide (DMSO) to generate a 30 mM stock. The compound stock was first pre-diluted in DMSO to 3, 0.34, 0.042 and 0.0083 mM intermediate concentrations and subsequently spotted using Echo550 liquid handler into an empty 384-well assay plate to achieve desired final concentration (e.g. 100, 33, 11, 3.7, 1.2, 0.41, 0.14, 0.046, 0.015, 0.0051, 0.0017 μM). DMSO was backfilled in the plate to achieve a final DMSO assay concentration of 0.37%. The plate was then sealed and stored at room temperature until required.
# THP-1 cells were treated with PMA (Phorbol 12-myristate 13-acetate) (20 ng/ml) for 16-18 hours. On the day of the experiment the media was removed and adherent cells were detached with trypsin for 5 minutes. Cells were then harvested, washed with complete RPMI 1640, spun down, and resuspended in RPMI 1640 (containing 2% heat inactivated FBS, penicillin (100 units/ml) and streptomycin (100 μg/ml). The cells were plated in the 384-well assay plate containing the spotted compounds at a density of 50,000 cells/well (final assay volume 50 μl). Cells were incubated with compounds for 1 hour and then stimulated with gramicidin (5 μM) (Enzo) for 2 hours. Plates were then centrifuged at 340 g for 5 min. Cell free supernatant (40 μL) was collected using a 96—CHannel PlateMaster (Gilson) and the production of IL-1β was evaluated by HTRF (cisbio). The plates were incubated for 18 h at 4° C. and read using the preset HTRF program (donor emission at 620 nm, acceptor emission at 668 nm) of the SpectraMax i3x spectrophotometer (Molecular Devices, software SoftMax 6). A vehicle only control and a dose titration of CRID3 (100-0.0017 μM) were run concurrently with each experiment.
# Procedure 2: IL-1β Production in PMA-Differentiated THP-1 Cells Stimulated with Gramicidin.
# THP-1 cells were purchased from the American Type Culture Collection and sub-cultured according to instructions from the supplier. Prior to experiments, cells were cultured in complete RPMI 1640 (containing 10% heat inactivated FBS, penicillin (100 units/ml) and streptomycin (100 μg/ml)), and maintained in log phase prior to experimental setup. Prior to the experiment THP-1 were treated with PMA (Phorbol 12-myristate 13-acetate) (20 ng/ml) for 16-18 hours. Compounds were dissolved in dimethyl sulfoxide (DMSO) to generate a 30mM stock. On the day of the experiment the media was removed and adherent cells were detached with trypsin for 5 minutes. Cells were then harvested, washed with complete RPMI 1640, spun down, resuspended in RPMI 1640 (containing 2% heat inactivated FBS, penicillin (100 units/ml) and streptomycin (100 μg/ml). The cells were plated in a 384-well plate at a density of 50,000 cells/well (final assay volume […]). Compounds were first dissolved in assay medium to obtain a 5× top concentration of 500 μM. 10 step dilutions (1:3) were then undertaken in assay medium containing 1.67% DMSO. 5× compound solutions were added to the culture medium to achieve desired final concentration (e.g. 100, 33, 11, 3.7, 1.2, 0.41, 0.14, 0.046, 0.015, 0.0051, 0.0017 μM). Final DMSO concentration was at 0.37%. Cells were incubated with compounds for 1 hour and then stimulated with gramicidin (5 μM) (Enzo) for 2 hours. Plates were then centrifuged at 340 g for 5 min. Cell free supernatant (40 μL) was collected using a 96—CHannel PlateMaster (Gilson) and the production of IL-1β was evaluated by HTRF (cisbio). […]
# [1] = Table B4, class symbols, read-out: hTHP-1 IC50
# [2] = Table B2, class symbols, read-out: hTHP-1 IC50
# [3] = Homo sapiens, THP-1, Table B3, hTHP-1 assay, class symbols, read-out: IC50
# [4] = Homo sapiens, THP-1, Table B2, class symbols, read-out: hTHP-1 IC50
# [5] = Table B1, class symbols, read-out: Average IC50 of compounds in hTHP-1 assay: hTHP-1 IC50
smiles,measurement,setting,value
"CCn1cc(F)c(S(N)(=O)=NC(=O)Nc2c3c(nc(C(F)(F)F)c2-c2ccccc2)CCC3)n1 (single isomer, unassigned) [Example 767, (R) or (S)-1-ethyl-4-fluoro-N′-((3-phenyl-2-(trifluoromethyl)-6,7-dihydro-5H-cyclopenta[b]pyridin-4-yl)carbamoyl)-1H-pyrazole-3-sulfonimidamide]",IC50,[1],8 to 40 nM
"CCc1c(C(F)(F)F)nc2c(c1NC(=O)N=S(N)(=O)c1cnc(C(C)(C)O)s1)CCC2 (single isomer, unassigned) [Compound 610b, (S) or (R)-N′-((3-ethyl-2-(trifluoromethyl)-6,7-dihydro-5H-cyclopenta[b]pyridin-4-yl)carbamoyl)-2-(2-hydroxypropan-2-yl)thiazole-5-sulfonimidamide]",IC50,[2],5000 to 30000 nM
"Cc1c(CC(F)(F)F)nc2c(c1NC(=O)N=S(N)(=O)c1nn(C(F)F)cc1F)CCC2 (single isomer, unassigned) [Example 723, (R) or (S)-1-(difluoromethyl)-4-fluoro-N′-((3-methyl-2-(2,2,2-trifluoroethyl)-6,7-dihydro-5H-cyclopenta[b]pyridin-4-yl)carbamoyl)-1H-pyrazole-3-sulfonimidamide]",IC50,[3],1000 to 5000 nM
CN(C)Cc1nc(C(C)(C)O)sc1[S@](N)(=O)=NC(=O)Nc1c2c(nc3c1CCC3(C)C)CCC2 [Compound 709],IC50,"Homo sapiens, THP-1, Table B2, numeric bounds, read-out: hTHP-1 IC50",> 30000 nM
"CC(C)(O)c1cc(F)c(S(N)(=O)=NC(=O)Nc2c3c(nc4c2CCC42CC2)CCC3)s1 (centres unmarked) [Compound 101, 3-fluoro-5-(2-hydroxypropan-2-yl)-N′-((1′,5′,6′,7′-tetrahydro-2′H-spiro[cyclopropane-1,3′-dicyclopenta[b,e]pyridin]-8′-yl)carbamoyl)thiophene-2-sulfonimidamide]",IC50,"Homo sapiens, THP-1, Table B1, class symbols, read-out: Average IC50 of compounds in hTHP-1 assay: hTHP-1 IC50",40 to 200 nM
"CC1(C)CCc2c1nc1c(c2NC(=O)N=S(N)(=O)c2sc(C(O)(CO)CO)nc2CO)CCC1 (single isomer, unassigned) [Example 777, (R) or (S)-N′-((3,3-dimethyl-1,2,3,5,6,7-hexahydrodicyclopenta[b,e]pyridin-8-yl)carbamoyl)-4-(hydroxymethyl)-2-(1,2,3-trihydroxypropan-2-yl)-thiazole-5-sulfonimidamide]",IC50,[1],200 to 1000 nM
"Cc1c(C(C)C)nc2c(c1NC(=O)N=S(N)(=O)c1cc(C(C)(C)O)cs1)CCC2 (centres unmarked) [Compound 681, 4-(2-Hydroxypropan-2-yl)-N′-((2-isopropyl-3-methyl-6,7-dihydro-5H-cyclopenta[b]pyridin-4-yl)carbamoyl)thiophene-2-sulfonimidamide]",IC50,[4],40 to 200 nM
"CC1(C)CCc2c1nc1c(c2NC(=O)N=S(N)(=O)c2nn(C(F)F)cc2F)CCC1 (centres unmarked) [Example 621, 1-(Difluoromethyl)-N′-((3,3-dimethyl-1,2,3,5,6,7-hexahydrodicyclopenta[b,e]pyridin-8-yl)carbamoyl)-4-fluoro-1H-pyrazole-3-sulfonimidamide]",IC50,[3],40 to 200 nM
"C[C@@H]1CCc2c1nc1c(c2NC(=O)N=S(N)(=O)c2sc(CN(C)C)cc2F)CCC1 (single isomer, unassigned) [Compound 636b, (R) or (S)-5-((Dimethylamino)methyl)-3-fluoro-N′-(((R)-3-methyl-1,2,3,5,6,7-hexahydrodicyclopenta [b,e]pyridin-8-yl)carbamoyl) thiophene-2-sulfonimidamide]",IC50,[2],40 to 200 nM
CC(C)(O)c1cc(F)c([S@](N)(=O)=NC(=O)Nc2c3c(nc(C4CC4)c2C2CC2)CCC3)s1 [Compound 727b],IC50,[4],40 to 200 nM
"Cc1c(C(C)C)nc2c(c1NC(=O)N=S(N)(=O)c1sc(C(C)(C)O)cc1F)CCC2 (single isomer, unassigned) [Compound 645a, (R) or (S)-3-Fluoro-5-(2-hydroxypropan-2-yl)-N′-((2-isopropyl-3-methyl-6,7-dihydro-5H-cyclopenta[b]pyridin-4-yl)carbamoyl) thiophene-2-sulfonimidamide]",IC50,[2],40 to 200 nM
"CCC1CCc2c1nc1c(c2NC(=O)N=S(N)(=O)c2sc(C(C)(C)O)cc2F)CCC1 (single isomer, unassigned) [Compound 671d, (R, R) or (R, S) or (S, R) or (S, S)-N′-((3-ethyl-1,2,3,5,6,7-hexahydrodicyclopenta [b,e]pyridin-8-yl)carbamoyl)-3-fluoro-5-(2-hydroxypropan-2-yl) thiophene-2-sulfonimidamide]",IC50,[2],200 to 1000 nM
"Cc1sc(S(N)(=O)=NC(=O)Nc2c3c(nc4c2CCC4C)CCC3)nc1C(C)(C)O (single isomer, unassigned) [Compound 104a, (R,R/S) or (S,R/S)-4-(2-hydroxypropan-2-yl)-5-methyl-N′-((3-methyl-1,2,3,5,6,7-hexahydrodicyclo-penta[b,e]pyridin-8-yl)carba-moyl)thiazole-2-sulfonimidamide]",IC50,[5],200 to 1000 nM
"CC(C)(O)c1ncc(S(N)(=O)=NC(=O)Nc2nc3c(c4c2CCC4)CCC3)s1 (centres unmarked) [Compound 677, N′-((1,2,3,5,6,7-hexahydrodicyclopenta[b,d]pyridin-5-yl)carbamoyl)-2-(2-hydroxypropan-2-yl)thiazole-5-sulfonimidamide]",IC50,[4],1000 to 5000 nM
"CC(C)(CO)c1ncc(S(N)(=O)=NC(=O)Nc2c3c(nc4c2CCC4(C)C)CCC3)s1 (centres unmarked) [Example 605, N′-((3,3-dimethyl-1,2,3,5,6,7-hexahydrodicyclopenta[b,e]pyridin-8-yl)carbamoyl)-2-(1-hydroxy-2-methylpropan-2-yl)thiazole-5-sulfonimidamide]",IC50,[3],200 to 1000 nM
"CCn1cc(F)c(S(N)(=O)=NC(=O)Nc2c3c(nc4c2CCC42CC2)CCC3)n1 (single isomer, unassigned) [Example 672, (S) or (R)-1-ethyl-4-fluoro-N′-((1′,5′,6′,7′-tetrahydro-2′H-spiro[cyclopropane-1,3'-dicyclopenta[b,e]pyridin]-8′-yl)carbamoyl)-1H-pyrazole-3-sulfonimidamide]",IC50,"Table B3, hTHP-1 assay, class symbols, read-out: IC50",1000 to 5000 nM
CCC1CCc2c1nc1c(c2NC(=O)N=S(N)(=O)c2cnc(C(C)(C)O)s2)CCC1 (centres unmarked) [Compound 662e],IC50,[2],1000 to 5000 nM
"CCc1c(C(F)(F)F)nc2c(c1NC(=O)N=S(N)(=O)c1sc(C(C)(C)O)cc1F)CCC2 (single isomer, unassigned) [Compound 611b, (R) or (S)-N′-((3-ethyl-2-(trifluoromethyl)-6,7-dihydro-5H-cyclopenta[b]pyridin-4-yl)carbamoyl)-3-fluoro-5-(2-hydroxypropan-2-yl)thiophene-2-sulfonimidamide]",IC50,[2],200 to 1000 nM
"CC1CCc2c1nc1c(c2NC(=O)N=S(N)(=O)c2cc(C(C)(C)O)cs2)CCC1 (single isomer, unassigned) [Compound 141a, (S,R/S) or (R,R/S)-4-(2-hydroxypropan-2-yl)-N′-((3-methyl-1,2,3,5,6,7-hexahydro-dicyclopenta[b,e]pyridin-8-yl)carbamoyl)thiophene-2-sulfonimidamide]",IC50,[5],1000 to 5000 nM
"CC(C)c1nc2c(cc1NC(=O)N=S(N)(=O)c1cnc(C(C)(C)O)s1)CCC2 (centres unmarked) [Compound 601, 2-(2-Hydroxypropan-2-yl)-N′-((2-isopropyl-6,7-dihydro-5H-cyclopenta[b]pyridin-3-yl)carbamoyl)thiazole-5-sulfonimidamide]",IC50,[4],5000 to 30000 nM
